Measured values reported in patent US6340755B1, “5H-Pyrano[2,3-d: 6,5-d']dipyrimidine derivatives having an antibacterial, antiviral and immuno-modulating activity” (Natural Drug Sciences LLC, priority 2000, dated 2002).

What was measured:
[1] = tested on: C. trachomatis D323; assay: Activity on Chlamydia trachomatis in McCoy and L929 cell cultures; type: cell-based; details: 100 mg/l, 48 hours
Procedure: The antimicrobial activity of the claimed compounds was studied on C. trachomatis […]-a standard strain from the collection of the Department of Microbiology of the Pavlov St.-Petersburg State University. This strain was isolated from a patient with […] urethritis. […] In the work reported here we used McCoy and L929 cell cultures obtained from the Institute of Cytology of the Russian Academy of Sciences. The cells were grown in flasks of neutral glass in RPMI-1640 medium with an addition of 10% fetal calf serum. The experiment was placed in glass (toxicity-free) flat-bottomed flasks and covered with glass. The cells were introduced into the medium in a final concentration of 1·10 cells/ml. […] The sample was centrifuged at 2400 g for 60 min at room temperature and incubated at 37° C. for 2 hours. […] A parallel series of samples was run using medium without the cycloheximide in order to avoid its influence on the test substances. The samples were incubated for 48 hours in a CO2 incubator. […] The results were evaluated from the detection of chlamydia cytoplasmatic inclusion by an immunoenzyme method (MicroTrac Chlamydia trachomatis Direct Specimen Test) and from chlamydia antigens using CylaMonoScreen (Russian-British Joint Venture, 66 Regent's Park Road, London NW 1 7SX).

[2] = tested on: primary culture of human lymphocytes; assay: Interferon-inducing activity in primary culture of human lymphocytes (immunoenzyme IFN determination); type: cell-based; design: unit of the concentration uncertain; details: 24 hours of incubation
Procedure: Interferon synthesis induction by the claimed preparations was conducted on a primary culture of human lymphocytes (the cells in the human body are the main producers of interferon). To obtain a culture of the lymphocytes we used fresh blood (12 hours after collection) from healthy […] (not from the second group).
The lymphocyte concentration was determined after staining with methyl blue and the number of cells in the Goryaev chamber was calculated. […] The final concentration of the lymphocytes in the induction mixture was 3·10^6 cells/ml. The following controls were processed in parallel with the test samples:
The control and the experimental samples were incubated for 24 hours at 37° C. Following incubation the samples were centrifuged at 2000 g to settle out the cellular elements and the INF-containing supernatant was taken from the samples and analyzed for INF content. The cell residue was resuspended in the same volume of nutrient medium, stained with a vital dye—trypan blue—and the number of cells in the Goryaev chamber was calculated (as described above) to determine the cytotoxic activity of the preparations.
For the quantitative determination of INF in the control and experimental samples we used the ProCon IF2 Plus immunoenzyme test system sold by TOO Proteinovyi Kontur. To determine the quantity of interferon s in the sample we used a solid-phase immunoenzyme method utilizing horseradish peroxidase as the enzyme indicator. The activity of the bound peroxidase was measured using an automated photometer at a wavelength of 450 nm for the microplanchets with a microprocessor. […] On the basis of the results obtained we plotted a calibration curve that allowed us to obtain data expressed in International Units (IU) from the microprocessor of the automated photometer. The results of the analysis are expressed in IU of activity of INF per ml in the given induction system containing 3·10^6 lymphocytes/ml. Every experimental and control point was studied in 4 parallel runs.
The results obtained were analyzed statistically using the t-test and the confidence interval at p=0.05 was calculated. Analysis of the convergence of the results of the parallel tests were performed.

[3] = tested on: herpes simplex type I (VPG-I/Leningrad/248/88); assay: Activity on herpes simplex virus: cytopathic action of the virus on Vero cells; type: cell-based; details: 36 hours; for number of cells in 100 fields (unchanged cells): cell control 12000
Procedure: The antiviral activity was studied relative to the virus herpes simplex type I (VPG-I/Leningrad/248/88) by a standard method. The virus was grown on a reinoculated Vero cell culture obtained from the cell culture bank of the Institute of Cytology of the Russian Academy of Sciences.
To cells grown on medium RPMI-1640 with 10% calf serum and placed in the wells of a 96-well plate, the virus was added to give a final concentration of 10 particles/ml and the claimed compounds dissolved in DMSO were added to give a final concentrations of 100, 10, and 1 mg/l. We used 5 individual wells for every concentration tested. The plate was incubated for 60 min at 38° C. in a CO2 incubator. After incubation the virus was removed and new medium was added that contained the claimed compounds in the test concentrations.
The results were evaluated according to the existence of a cytopathic action of the virus on the cells after 36 hours of incubation at 38° C. in the CO2 incubator.
The following controls were used in the experiment:
3. Control of antiviral activity of an antiviral preparation—acylcovir.
To access the cytopathic effect of the virus, we counted the number of unchanged cells in 100 fields formed by a specialized grid on the eyepiece of the inversion microscope.

[4] = tested on: non-linebred white mice; assay: Acute toxicity (LD50) in mice; type: in vivo; details: mice 18-20 g; by mouth or intravenously; observation period 14 days
Procedure: Acute toxicity was determined on non-linebred white mice weighing 18-20 g. Emulsions of certain of the claimed compounds were prepared in a range of concentrations: 1500, 700, 500, 100, 20 and 5 μg/kg. Five animals were used to study each specific concentration of a compound. The preparation was administered once a day by mouth or intravenously. The observation period was 14 days On days 1, 8 and 15 the animals in every group were weighed. For a control we used animals who received the emulsion without the test compounds.
All animals, both that died in the course of the experiment and those that survived to the end of the experiment, were opened to allow macroscopic examination of internal organs.
In the course of the experiment no loss of weight was observed or any change in behavior or external appearance, nor was there any loss of life. Based on the results of the macroscopic examination of internal organs of the animals in the test and the control groups, no pathological findings were made (Table 7).

[5] = tested on: herpes simplex type I (VPG-I/Leningrad/248/88); assay: Activity on herpes simplex virus: cytopathic action of the virus on Vero cells; type: cell-based; details: 50 mg/l, 36 hours

## Oc1nc(S)nc2c1C(c1ccc(Cl)cc1)c1c(O)nc(S)nc1O2 [VIII]
[1]
  percent protection of the cells against infection: 60%
[1]; cell control 8000, infected cell control 6400
  number of cells in 100 fields (unchanged cells): 7360
[2]; 1 (unit uncertain)
  Interferon-inducing activity of the drug; content of INF in induction mixture: 1.5 ± 1.0 IU/3 · 10^4 lymp/ml
[2]; 10 (unit uncertain)
  Interferon-inducing activity of the drug; content of INF in induction mixture: 23.2 ± 1.5 IU/3 · 10^4 lymp/ml
[2]; 100 (unit uncertain)
  Interferon-inducing activity of the drug; content of INF in induction mixture: 70.5 ± 2.5 IU/3 · 10^4 lymp/ml
[3]; 10 mg/l
  percent protection of the cells against the virus compared to the cell culture control: 20%
  number of cells in 100 fields (unchanged cells): 2400
[3]; 100 mg/l
  percent protection of the cells against the virus compared to the cell culture control: 90%
  number of cells in 100 fields (unchanged cells): 10800
[4]
  LD50: 1800 mg/kg
[5]
  percent protection of the cells against the virus compared to the cell culture control: 50%
[5]; cell control 12000
  number of cells in 100 fields (unchanged cells): 6000
